Data as given in PubChem BioAssay AID743123 (Broad Institute, 2013).
Where “and” joins values, the source holds several entries; their conditions need not be identical. Identical values can stand only once. Results filed as inconclusive are left out. Calls of active or inactive are those of the source.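 How the source made its calls: active means inhibition with a half-effect concentration no higher than twice the top valid dose tested; inconclusive means flat fit inhibiting 30 to 70%, or a poor fit; inactive means effect in the wrong direction, plus the rest.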

Tested on: not listed separately
Experiment: antifungal activity under osmotic support – alamar blue, sorbitol added, dry powder, counter-screen for C. neoformans cell wall antifungals, dose response (AID 743123)
Settings: C. neoformans, alamar blue, sorbitol counter-screen, 24 h; at 35 µM (top of the series)

| SMILES | activity change, negative = inhibition |
| --- | --- |
| Cc1ccc(OCCn2c(C)nc3ccccc32)cc1 | -59.3% (inactive) |
| CCOC(=O)c1c(-c2ccc(F)cc2)csc1NC(=O)CN1CCN(C)CC1 | -15.2% (inactive) |
| O=c1[nH]c2ccccc2n1CCOc1ccccc1 | -36.6% (inactive) |
| c1ccc(OCCn2cnc3ccccc32)cc1 | -38.4% (inactive) |
| Cc1cccc(OCCn2c(=S)[nH]c3cc(C(F)(F)F)ccc32)c1 | -32% (inactive) |

Tested on: C. neoformans, alamar blue, sorbitol counter-screen, 24 h
Experiment: as above
Settings: not given

| SMILES | AC50 |
| --- | --- |
| Cc1ccc(OCCn2c(SCCO)nc3ccccc32)c(C(C)C)c1 | 7.62 µM |
| COC(=O)C1=C(C)N(Cc2ccccc2)C(=S)NC1c1ccc(Br)cc1 (stereo not given) | 9.1 µM |
| COC(=O)C1=C(C)N(Cc2ccc(F)cc2)C(=S)NC1c1cccc(F)c1 (stereo not given) | 24.2 µM |
| CCOC(=O)c1c(-c2ccc(-c3ccccc3)cc2)csc1NC(=O)CNCCN(C)C | 19.9 µM |
| Fc1cccc2c1[nH]c(=S)n2CCOc1ccccc1 | 31.9 µM |
| Cc1ccc(C(C)C)c(OCCn2c(=S)[nH]c3ccccc32)c1 | 10.1 µM |
| S=c1[nH]c2cccc(Cl)c2n1CCOc1ccccc1 | 11.6 µM |
| CCOC(=O)c1c(-c2ccc(C(C)(C)C)cc2)csc1NC(=O)CN1CCN(C)CC1 | 13.7 µM |
| CCOC(=O)c1c(NC(=O)CNCCN(C)C)sc(C)c1-c1ccccc1 | 1.09 µM |
| Fc1ccccc1OCCn1c(=S)[nH]c2ccccc21 | 36.2 µM |
| CCOC(=O)c1c(NC(=O)CN2CCN(C)CC2)sc(C)c1-c1ccc(C)cc1 | 16.9 µM |
| Cc1ccc(OCCn2cnc3ccccc32)cc1 | 7.76 µM |
| S=c1[nH]c2ccccc2n1CCOc1ccc(Cl)cc1 | 14.7 µM |
| CCOc1ccc(OCCn2c(=S)[nH]c3ccccc32)cc1 | 24.1 µM |
| COC(=O)C1=C(C)N(Cc2ccc(Br)cc2)C(=S)NC1c1ccc(F)cc1 (stereo not given) | 5.99 µM |
| COC(=O)C1=C(C)N(Cc2ccc(Cl)cc2)C(=S)NC1c1ccc(Br)cc1 (stereo not given) | 3.11 µM |
| Cc1ccc2c(c1)[nH]c(=S)n2CCOc1ccccc1 | 27.1 µM |
| Cc1ccc(OCCn2c(=S)[nH]c3ccccc32)c(C(C)C)c1 | 8.54 µM and 9.18 µM |
| S=c1[nH]c2ccccc2n1CCOc1ccccc1 | 28.5 µM |
| CCOC(=O)c1c(-c2ccc(C(C)(C)C)cc2)csc1NC(=O)CN1CCN(CC)CC1 | 14.6 µM |
| Cc1ccc(OCCn2c(=S)[nH]c3ccccc32)cc1 | 10.9 µM |
| COC(=O)C1=C(C)N(Cc2ccc(Br)cc2)C(=S)NC1c1ccc(OC)cc1 (stereo not given) | 23.9 µM |
| CCOC(=O)c1c(-c2ccc(OC)cc2)csc1NC(=O)CN(C)CC(=O)N(C)C | 13.9 µM |
| CCOC(=O)c1c(-c2ccc(F)cc2)csc1NC(=O)CN1CCN(CC)CC1 | 36.1 µM |
| Cc1ccccc1OCCn1c(=S)[nH]c2ccccc21 | 9.99 µM |
